In patent EP2292587A1, “PHARMACEUTICAL COMPOSITION FOR INHIBITING THE TRANSCRIPTION FACTOR INDUCIBLE BY HYPOXIA, MODULATORS OF PATHOLOGICAL PROCESSES OF ANGIOGENESIS, ONCOGENESIS, INFLAMMATION, APOPTOSIS, AND CELLULAR THERAPY” (Fundacion De La Comunidad Valenciana Centro De …, priority 2008, dated 2009):

What was measured:
VEGF and COX-2 = experiment: qPCR of VEGF and COX-2 in dental pulp stem cells; format: cell-based, human; conditions: 0.5 µM
Excerpt: The culture medium used was Low-Glucose DMEM supplemented with 10% fetal bovine serum. The human dental pulp mesenchymal stem line [Gronthos S, et al., "Postnatal human dental pulp stem cells (DPSCs) in vitro and in vivo" Proc Natl Acad Sci U S A, 2000 Dec 5; 97(25):13625-30.; Gronthos S et al.,." Stem cell properties of human dental pulp stem cells" J Dent Res, 2002 Aug; 81(8):531-5], obtained from human third molars from adults (19-29 years of age), was provided by the Cardioregeneration Dept. of the CIPF. The cells were seeded at a density of 2000 cells/cm^2, and when they reached a 90% confluence they were subcultured again by means of trypsinization.
Total RNA was isolated using the commercial kit RNAeasy (Qiagen) and following the manufacturer's instructions. 1 µg of total RNA of each sample was retrotranscribed using the commercial kit Reverse Transcription Reagent (Applied Biosystem). The quantitative polymerase chain reaction (qPCR) was carried out using Taqman probes and primers designed by Applied Biosystem for hsVEGF (Ref HS00173626_m1), hsCOX-2 (Ref Hs00153133_m1) and hsGAPDH (Ref HS 99999905_m1). […] The expression levels of VEGF and COX-2 were expressed as the increase of Ct with respect to the expression levels of GAPDH (constitutive expression gene): Ct (ΔCt)=Ct (VEGF or […])-Ct (GAPDH). […]

[1] = tested on: mouse neurospheres (neural stem cells); experiment: microsatellite genomic instability in neurospheres; format: cell-based
Protocol: By using specific fluorescence-labeled primers for microsatellite sequence markers, the genomic stability of neurospheres in normoxia (Nx), hypoxia (Hx) or hypoxia+FM19G11 (Hx+19G11) was analyzed. […] The treatment with FM19G11 enabled the recovery of the normoxia profiles (used as a reference or control), thus preventing the genomic instability caused by hypoxia.

Sox2 and Oct3/4 = experiment: qPCR of Sox2 and Oct3/4 in H9 hESCs; format: cell-based, human; conditions: 500 nM, 48 hours, hypoxia (1% O2)
Protocol: Culture of the H9 human embryonic cell (hESC) line: To maintain and propagate the hESC line (up to no more than 70 passes), the hESCs are cultured on a monolayer of mouse fibroblasts inactivated with mitomycin C (Sigma Aldrich, Sweden) (Thomson et al., [1998]). To study the transcriptional changes of SOx2 and Oct3/4, the undifferentiated colonies of hESCs were transferred, by mechanical dissociation, to a culture plate coated with a thin layer of Matrigel® and are cultured in the presence of conditioned medium. The conditioned medium is obtained from the culture of confluent and inactivated mouse fibroblasts, seeded on plates coated with gelatin (0.1 %; Sigma).
Using the experimental conditions described in Example 35, the procedure was the same including in this case the TaqMan probes for human Sox2, Oct3/4 and GAPDH (Sox2: Hs01053049_s1; Oct3/4:Hs01895061_u1; GAPDH: Hs99999905_m1). […] The expression levels of both messenger RNAs are induced under hypoxic conditions versus normoxic conditions (high oxygen culture conditions ~ 20% O2),

JUNB = experiment: selectivity luciferase assay, Hek 293-CRE-LUC; format: cell-based; conditions: 0-1 µM, 6 hours
Protocol: The selectivity assays with the active compound FM19G11 were performed in white 96-well plates using the recombinant strains Hek 293-TRE-LUC and Hek 293-CRE-LUC which represent the transcriptional activity of transcription factors of the AP-1 complex. The luciferase assay for measuring transcriptional activity was performed using the kit Bright-Glo™ Luciferase Assay System (Promega, Inc., Madison, WI), following the instructions supplied by the manufacturer and the Hek 293-TRE-LUC and Hek 293-CRE-LUC lines contain the response elements of transcription factors of the AP-1 complex, specifically of c-FOS and JUNB, respectively. The Hek 293-TRE-LUC and Hek 293-CRE-LUC lines were provided by Dr. Rosa Farrás.

Cc1ccc(C(=O)COC(=O)c2cccc(NC(=O)c3ccc([N+](=O)[O-])cc3[N+](=O)[O-])c2)cc1 [FM19G11, 2-oxo-2-(p-tolyl)ethyl 3-((2,4-dinitro)benzamido)benzoate]
increase of both VEGF and COX-2 (mRNA) (VEGF and COX-2; hypoxic conditions, 6 and 18 hours): inhibited
expression levels of VEGF and COX-2 (VEGF and COX-2; normoxic conditions): did not cause any effect
genomic instability caused by hypoxia (microsatellite markers mBAT59, mBAT67) [1]: prevented
expression of both Sox2 and Oct3/4 (mRNA) (Sox2 and Oct3/4): significantly inhibits
transcriptional levels of Hek 293-CRE-LUC (JUNB): not affected in any case
